Reference: US8962844B2, “1,3,4-oxadiazole and 1,3,4-thiadiazole β-lactamase inhibitors” (priority 2012, dated 2015)
Counter-ions that a name gives are not always drawn.

Experiments:
[1] = tested on: bacterial strains that express KPC β-lactamases; experiment: Standard BLI potentiation MIC / synergy MIC (sMIC) assays run in the presence of a β-lactam, KPC expressing strains; type: cell-based; settings: more active for at least one KPC strain and/or better spectrum of activity than Avibactam; BLI in combination with a β-lactam
Procedure, shortened: (§1)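 Isogenic E. coli DH10B carrying cloned β-lactamase genes on pBR322-derived plasmid (blaTEM-1 promoter, tetracycline 25 μg/mL) tested by CLSI broth microdilution in CAMHB. Test compound and β-lactam each diluted and combined; MIC reported in presence of β-lactam.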

[2] = tested on: bacterial strains that express the class D cephalosporinase OXA-15; experiment: Standard BLI potentiation MIC / synergy MIC (sMIC) assays run in the presence of a β-lactam, OXA-15 expressing strains; type: cell-based, E. coli; settings: BLI in combination with a β-lactam; comparison with Avibactam (comparator compound CCC)
Procedure, shortened: as §1

Structure (SMILES) | activity and/or spectrum of activity against bacterial strains that express KPC β-lactamases, compared with Avibactam [1] | activity against bacterial strains that express the class D cephalosporinase OXA-15, compared with Avibactam [2]
O=C1N2C[C@@H](CC[C@H]2c2nnc([C@H]3CNCCN3)o2)N1OS(=O)(=O)O [Compound 779, (2S,5R)-7-oxo-2-(5-((R)-piperazin-2-yl)-1,3,4-oxadiazol-2-yl)-1,6-diazabicyclo[3.2.1]octan-6-yl hydrogen sulfate] | more active than Avibactam | more active than Avibactam
C[n+]1ccc(-c2nnc([C@@H]3CC[C@@H]4CN3C(=O)N4OS(=O)(=O)[O-])o2)cc1 [Compound 782, (2S,5R)-2-(5-(1-methylpyridin-1-ium-4-yl)-1,3,4-oxadiazol-2-yl)-7-oxo-1,6-diazabicyclo[3.2.1]octan-6-yl sulfate] | more active than Avibactam | more active than Avibactam
N[C@H]1C[C@H](c2nnc([C@@H]3CC[C@@H]4CN3C(=O)N4OS(=O)(=O)O)s2)C1 [Compound 783, (2S,5R)-2-(5-((1r,3S)-3-aminocyclobutyl)-1,3,4-thiadiazol-2-yl)-7-oxo-1,6-diazabicyclo[3.2.1]octan-6-yl hydrogen sulfate] | more active than Avibactam | more active than Avibactam
N=C(N)N[C@H]1C[C@@H](c2nnc([C@@H]3CC[C@@H]4CN3C(=O)N4OS(=O)(=O)O)s2)C1 [Compound 784, (2S,5R)-2-(5-((1s,3R)-3-guanidinocyclobutyl)-1,3,4-thiadiazol-2-yl)-7-oxo-1,6-diazabicyclo[3.2.1]octan-6-yl hydrogen sulfate] | more active than Avibactam | more active than Avibactam
N=C(N)NCCc1nnc([C@@H]2CC[C@@H]3CN2C(=O)N3OS(=O)(=O)O)s1 [Compound 794, (2S,5R)-2-(5-(2-guanidinoethyl)-1,3,4-thiadiazol-2-yl)-7-oxo-1,6-diazabicyclo[3.2.1]octan-6-yl hydrogen sulfate] | more active than Avibactam | more active than Avibactam
N[C@H]1C[C@@H](c2nnc([C@@H]3CC[C@@H]4CN3C(=O)N4OS(=O)(=O)O)s2)C1 [Compound 795, (2S,5R)-2-(5-((1s,3R)-3-aminocyclobutyl)-1,3,4-thiadiazol-2-yl)-7-oxo-1,6-diazabicyclo[3.2.1]octan-6-yl hydrogen sulfate] | more active than Avibactam | more active than Avibactam
